# Source: patent publication US10858335B2 (Rigel Pharmaceuticals, Inc., priority 2014, dated 2020)
# Tested on: GDF8 signaling (p-SMAD-3 (Ser423/425))
# Experiment: AlphaScreen SureFire SMAD3 (p-Ser423/425) assay, GDF8-stimulated cells (GDF pSMAD)
# Format: cell-based
# Conditions: Mus musculus, MPC-11, MPC11; GDF8-stimulated; p-SMAD3 AlphaScreen; read-out: GDF pSMAD (MPC11) (inhibition of GDF8 signaling)
row,SMILES,IC50 [nM]
1,"Nc1ncnc2ccc(-c3cccnc3-c3cccc(O)c3)cc12 [compound 456, 3-(3-(4-Aminoquinazolin-6-yl)pyridin-2-yl)phenol]",299
2,"Cc1ccc(-c2ncccc2-c2ccc3ncnc(N)c3c2)cc1F [compound 459, 6-(2-(3-Fluoro-4-methylphenyl)pyridin-3-yl)quinazolin-4-amine]",11500
3,"Nc1ncnc2ccc(-c3cccnc3-c3cc(F)cc(Cl)c3)cc12 [compound 460, 6-(2-(3-Chloro-5-fluorophenyl)pyridin-3-yl)quinazolin-4-amine]",129
4,"Nc1ncnc2ccc(-c3cccnc3-c3cccc(F)c3)cc12 [compound 461, 6-(2-(3-Fluorophenyl)pyridin-3-yl)quinazolin-4-amine]",551
5,"Cc1ccccc1-c1ncccc1-c1ccc2ncnc(N)c2c1 [compound 462, 6-(2-(o-Tolyl)pyridin-3-yl)quinazolin-4-amine]",18400
6,"Cc1ccc(Cl)cc1-c1ncccc1-c1ccc2ncnc(N)c2c1 [compound 463, 6-(2-(5-Chloro-2-methylphenyl)pyridin-3-yl)quinazolin-4-amine]",297
7,"Cc1c(Cl)cccc1-c1ncccc1-c1ccc2ncnc(N)c2c1 [compound 464, 6-(2-(3-Chloro-2-methylphenyl)pyridin-3-yl)quinazolin-4-amine]",3960
8,"Cc1ccc(F)cc1-c1ncccc1-c1ccc2ncnc(N)c2c1 [compound 466, 6-(2-(5-Fluoro-2-methylphenyl)pyridin-3-yl)quinazolin-4-amine]",7580
9,"Cc1cc(F)ccc1-c1ncccc1-c1ccc2ncnc(N)c2c1 [compound 467, 6-(2-(4-Fluoro-2-methylphenyl)pyridin-3-yl)quinazolin-4-amine]",12200
10,"Cc1c(F)cccc1-c1ncccc1-c1ccc2ncnc(N)c2c1 [compound 468, 6-(2-(3-Fluoro-2-methylphenyl)pyridin-3-yl)quinazolin-4-amine]",7820
11,"Nc1ncnc2ccc(-c3cccnc3-c3cc(F)c(F)c(F)c3)cc12 [compound 469, 6-(2-(3,4,5-Trifluorophenyl)pyridin-3-yl)quinazolin-4-amine]",1580
12,"Nc1ncnc2ccc(-c3cccnc3-c3ccc4c(c3)CCC4)cc12 [compound 470, 6-(2-(2,3-Dihydro-1H-inden-5-yl)pyridin-3-yl)quinazolin-4-amine]",21100
13,"COc1ccc(F)c(-c2ncccc2-c2ccc3ncnc(N)c3c2)c1 [compound 473, 6-(2-(2-Fluoro-5-methoxyphenyl)pyridin-3-yl)quinazolin-4-amine]",292
14,"COc1cc(-c2ncccc2-c2ccc3ncnc(N)c3c2)ccc1F [compound 474, 6-(2-(4-Fluoro-3-methoxyphenyl)pyridin-3-yl)quinazolin-4-amine]",429
15,"Nc1ncnc2ccc(-c3cccnc3-c3ccc(F)c(C(F)(F)F)c3)cc12 [compound 476, 6-(2-(4-Fluoro-3-(trifluoromethyl)phenyl)pyridin-3-yl)quinazolin-4-amine]",2760
16,"N#Cc1cc(-c2ncccc2-c2ccc3ncnc(N)c3c2)ccc1F [compound 477, 5-(3-(4-Aminoquinazolin-6-yl)pyridin-2-yl)-2-fluorobenzonitrile]",492
17,"CC(C)c1cccc(-c2ncccc2-c2ccc3ncnc(N)c3c2)c1 [compound 478, 6-(2-(3-Isopropylphenyl)pyridin-3-yl)quinazolin-4-amine]",6600
18,"CC(C)Oc1cccc(-c2ncccc2-c2ccc3ncnc(N)c3c2)c1 [compound 480, 6-(2-(3-isopropoxyphenyl)pyridin-3-yl)quinazolin-4-amine]",1210

row,SMILES,IC50 [nM]
1,"N#CCOc1cccc(-c2ncccc2-c2ccc3ncnc(N)c3c2)c1 [compound 481, 2-(3-(3-(4-Aminoquinazolin-6-yl)pyridin-2-yl)phenoxy)acetonitrile]",1280
2,"COCCOc1cccc(-c2ncccc2-c2ccc3ncnc(N)c3c2)c1 [compound 482, 6-(2-(3-(2-Methoxyethoxy)phenyl)pyridin-3-yl)quinazolin-4-amine]",1700
3,"Nc1ncnc2ccc(-c3cccnc3-c3cccc(OCC4CC4)c3)cc12 [compound 483, 6-(2-(3-(Cyclopropylmethoxy)phenyl)pyridin-3-yl)quinazolin-4-amine]",820
4,"Nc1ncnc2ccc(-c3cccnc3-c3cccc(OCC(F)(F)F)c3)cc12 [compound 484, 6-(2-(3-(2,2,2-Trifluoroethoxy)phenyl)pyridin-3-yl)quinazolin-4-amine]",161
5,"Fc1ccc(-c2ncccc2-c2ccc3ncnc(Nc4cccnc4)c3c2)cc1Cl [compound 490, 6-(2-(3-Chloro-4-fluorophenyl)pyridin-3-yl)-N-(pyridin-3-yl)quinazolin-4-amine]",6510
6,"Cc1ccc(Nc2ncnc3ccc(-c4cccnc4-c4ccc(F)c(Cl)c4)cc23)cn1 [compound 491, 6-(2-(3-Chloro-4-fluorophenyl)pyridin-3-yl)-N-(6-methylpyridin-3-yl)quinazolin-4-amine]",9220
7,"Fc1ccc(-c2ncccc2-c2ccc3ncnc(Nc4ccncc4)c3c2)cc1Cl [compound 492, 6-(2-(3-Chloro-4-fluorophenyl)pyridin-3-yl)-N-(pyridin-4-yl)quinazolin-4-amine]",3730
8,"Nc1ncnc2ccc(-c3cccnc3-c3cc(O)cc(Cl)c3)cc12 [compound 493, 3-(3-(4-Aminoquinazolin-6-yl)pyridin-2-yl)-5-chlorophenol]",938
9,"Nc1ncnc2ccc(-c3cccnc3-c3cc(O)cc(F)c3)cc12 [compound 494, 3-(3-(4-Aminoquinazolin-6-yl)pyridin-2-yl)-5-fluorophenol]",107
10,"Cc1cc(O)cc(-c2ncccc2-c2ccc3ncnc(N)c3c2)c1 [compound 495, 3-(3-(4-Aminoquinazolin-6-yl)pyridin-2-yl)-5-methylphenol]",247
11,"Nc1ncc2ccc(-c3cccnc3-c3ccc(F)c(Cl)c3)cc2n1 [compound 496, 7-(2-(3-Chloro-4-fluorophenyl)pyridin-3-yl)quinazolin-2-amine]",783
12,"Nc1ncnc2ccc(-c3cccnc3-c3ccccc3Cl)cc12 [compound 497, 6-(2-(2-Chlorophenyl)pyridin-3-yl)quinazolin-4-amine]",9220
13,"Nc1ncnc2ccc(-c3cccnc3-c3cccc(Cl)c3Cl)cc12 [compound 498, 6-(2-(2,3-Dichlorophenyl)pyridin-3-yl)quinazolin-4-amine]",1200
14,"Nc1ncnc2ccc(-c3cccnc3-c3ccc(F)cc3Cl)cc12 [compound 499, 6-(2-(2-Chloro-4-fluorophenyl)pyridin-3-yl)quinazolin-4-amine]",6520
15,"Nc1ncnc2ccc(-c3cccnc3-c3cc(Cl)ccc3Cl)cc12 [compound 501, 6-(2-(2,5-Dichlorophenyl)pyridin-3-yl)quinazolin-4-amine]",355
16,"COc1cc(-c2ncccc2-c2ccc3ncnc(N)c3c2)c(F)cc1F [compound 502, 6-(2-(2,4-Difluoro-5-methoxyphenyl)pyridin-3-yl)quinazolin-4-amine]",563
17,"Nc1ncnc2ccc(-c3cccnc3-c3cccc(F)c3Cl)cc12 [compound 503, 6-(2-(2-Chloro-3-fluorophenyl)pyridin-3-yl)quinazolin-4-amine]",4820
18,"Nc1ncnc2ccc(-c3cccnc3-c3cc(F)ccc3Cl)cc12 [compound 504, 6-(2-(2-Chloro-5-fluorophenyl)pyridin-3-yl)quinazolin-4-amine]",4960
